PubChem BioAssay AID1626 (SRMLSC, 2009)

Tested on: M. tuberculosis H37Rv growth inhibition
Test: M. tuberculosis H37Rv growth inhibitors, H37Rv strain (AID 1626)
Details: for IC90: measured here: IC90 against H37Rv; for CC50: measured here: Vero cell cytotoxicity

| SMILES | IC50 | IC90 | CC50 |
| --- | --- | --- | --- |
| COc1ccc(/C=C/c2cc(-c3ccc(C)cc3)o[n+]2C)cc1 | 3.21 µM | 7.34 µM | > 40 µM |
| COc1ccc(N/C=C2\CCc3ccccc3C2=O)cc1 | – | > 100 µM | > 40 µM |
| CCc1ccc2c(c1)C1(C(=O)N2)N2CCCC2C(C(=O)c2ccc3ccccc3c2)C12C(=O)Nc1ccccc12 (stereo not drawn) | 2.97 µM | > 100 µM | 17.8 µM |
| CCn1c(NC(=O)c2cccc(Cn3cc(Cl)cn3)c2)nc2ccccc21 | 3.65 µM | > 100 µM | > 40 µM |
| CC(C)(C)c1cc(NCCCn2ccnc2)n2ncc(-c3ccc(Cl)cc3)c2n1 | 0.939 µM | 1.43 µM | 22.3 µM |
| OCCc1ccc(-c2ccc(Cl)cc2)o1 | 23.5 µM | > 100 µM | – |
| CSc1nc2ccc(NS(=O)(=O)c3cccc(Cl)c3Cl)cc2s1 | – | > 100 µM | – |
| O=C(Nc1ccc(N2CCN(C(=O)c3ccccc3)CC2)cc1)c1ccc([N+](=O)[O-])o1 | < 0.195 µM | < 0.195 µM | 1.63 µM |
| CCCCCCc1ccc(OCC(=O)OC)cc1OCC(=O)OC | 1.82 µM | 20.1 µM | – |
| Cc1ccc(NC(=O)COC(=O)C2=COCCO2)c([N+](=O)[O-])c1 | 6.3 µM | > 100 µM | – |
| COc1ccc(Oc2ccc(N/C=C/C(=O)C(C)(C)C)cc2)cc1 | 75 µM | > 100 µM | – |
| CCOC(=O)c1cc(-c2csc(COc3ccccc3)n2)on1 | 1.84 µM | 35.2 µM | – |
| Fc1ccc(Sc2nc(-c3ccccc3)nnc2C(F)(F)F)cc1 | 90.4 µM | > 100 µM | > 40 µM |
| CCN1CCN(Cc2ccc(NC(=O)c3cc(NC(=O)c4cncc(-c5ccc(C#N)cc5)c4)cc(OC)c3)cc2C(F)(F)F)CC1 | 4.55 µM | 6.7 µM | 5.63 µM |
| Cc1ccn2c(Nc3ccccc3C)c(-c3ccccn3)nc2c1 | 1.42 µM | 1.59 µM | 3.12 µM |
| CCN(CC)C(=O)CSc1nnc2nnc3cc(Cl)ccc3n12 | 1.22 µM | 7.51 µM | 19.8 µM |
| COc1ccc(C2(CNC(=O)c3cc([N+](=O)[O-])cc([N+](=O)[O-])c3)CCCC2)cc1OC | < 0.195 µM | 0.686 µM | – |
| Nc1nc(F)nc2c1ncn2[C@@H]1O[C@H](CO)[C@@H](O)[C@H]1O | 2.65 µM | 3.95 µM | 0.218 µM |
| Cc1cc(SCC(=O)OC/C(O)=C(\C#N)c2nc3ccccc3[nH]2)c(C)cc1Br | 9.09 µM | 12.6 µM | > 40 µM |
| CC(C)c1ccc(CNc2nc3nc4c(c(=O)n3[nH]2)CCC4)cc1 | 0.464 µM | > 100 µM | – |
| c1ccc(N2CCN(c3nc(-c4ccccn4)nc4ccccc34)CC2)cc1 | 0.924 µM | 1.62 µM | 25.9 µM |

| SMILES | IC50 | IC90 | CC50 |
| --- | --- | --- | --- |
| CCOC(=O)c1ccc(NC(=O)CCc2nc(-c3cccc(C)c3)no2)cc1 | 2.76 µM | > 100 µM | – |
| O=C(Nc1ccccc1Cl)Oc1ccc2ccccc2c1 | – | > 100 µM | – |
| COc1ccccc1-c1nnc(SCC(=O)Nc2cc(C)on2)o1 | 10.4 µM | 16.5 µM | – |
| CCCCc1ccc(C2C3=C(CC(C)(C)CC3=O)NC3=C2C(=O)c2ccccc23)cc1 (stereo not drawn) | 3.09 µM | > 100 µM | > 40 µM |
| CCOc1ccc(NC(=O)CCN2CCN(c3ccccc3)CC2)cc1 | – | > 100 µM | – |
| CCN(CC)CCCNc1nc2cc(OC)c(OC)cc2c2nc(-c3ccccc3)nn12 | 9.3 µM | 13.8 µM | > 40 µM |
| NC1=NC[C@H](Cc2ccccc2)N1CCCCC1CCCCC1 | 10 µM | 13.6 µM | > 40 µM |
| CCCCCOc1ccc(Br)cc1CSC(=N)N | 9.43 µM | 12 µM | 14.8 µM |
| CCCNC(=O)NC(=O)COc1ccc(-c2ccc(C#N)cc2)cc1 | 0.754 µM | > 100 µM | – |
| Cc1cccc(NC(=O)c2nc[nH]c2C(=O)N[C@@H](C)C(=O)OCc2ccccc2)c1 | 59.9 µM | > 100 µM | – |
| CC(C)Cc1cc(C(=O)Nc2c(F)cc(F)cc2Br)no1 | 6.59 µM | 10.5 µM | – |
| O=C(CSCC(=O)NC1CC1)Nc1ccc2ccccc2c1 | 5.37 µM | > 100 µM | – |
| Cc1ccc2nc(SCC(=O)Nc3ccc4c(c3)CCC4)[nH]c2c1 | – | > 100 µM | – |
| Cc1cc(Nc2ccccc2)nc(NCc2ccccc2)n1 | 10.9 µM | 14.4 µM | 23.3 µM |
| Nc1ncnc(Oc2cccc3cccnc23)c1[N+](=O)[O-] | 6.19 µM | 6.94 µM | 37.1 µM |
| COc1ccc(-c2noc(CCC(=O)Nc3ccc(C)c(C)c3)n2)cc1 | 22.6 µM | > 100 µM | – |
| COC(=O)COc1ccc2c(=O)c(Oc3ccccc3)c(C)oc2c1 | 2.13 µM | 10 µM | – |
| C#CCn1c(=NC(=O)c2cc(Cl)sc2Cl)sc2cc(S(N)(=O)=O)ccc21 | 1.57 µM | > 100 µM | > 40 µM |
| CSc1ccc(NC(=O)N2CCN(c3nc4ccccc4s3)CC2)cc1 | 9.18 µM | > 100 µM | > 40 µM |
| Cc1ccc(C(O)(c2ccccc2)c2ccccc2C(C)N(C)C)c(C)c1 (stereo not drawn) | 11.7 µM | 19.9 µM | 39 µM |
| Cc1ccc(-c2ccc(/C=C/C(=O)c3ccccc3)o2)cc1 | 19.6 µM | > 100 µM | 24.7 µM |

| SMILES | IC50 | IC90 | CC50 |
| --- | --- | --- | --- |
| COC(=O)CSc1ncnc2c1sc1nc3c(cc12)COC(C)(C)C3 | 3.1 µM | 10 µM | – |
| CCOC(=O)COc1cc(OCC(=O)OCC)c2c(=O)cc(-c3ccccc3)oc2c1 | 1.37 µM | 3.74 µM | – |
| Cc1nc2ncccn2c1-c1csc(Nc2ccc(N(C)C)cc2)n1 | 12.8 µM | 16 µM | 3.47 µM |
| Clc1ccc2nc(-c3ccccn3)c(Nc3ccc4c(c3)OCO4)n2c1 | 2.56 µM | 4.43 µM | 11.1 µM |
| Cc1cc(Cl)n2ncc(-c3ccccc3)c2n1 | 58.1 µM | > 100 µM | > 40 µM |
| COc1ccc(C(C(=O)NC2CCCCC2)N(C(=O)c2sc(C)nc2C)c2ccccc2C)cc1 (stereo not drawn) | 6.96 µM | 11.4 µM | > 40 µM |
| O=C1C(NS(=O)(=O)c2cccs2)=C(N2CCN(c3cccc(C(F)(F)F)c3)CC2)C(=O)c2ccccc21 | 4.12 µM | 7.38 µM | > 40 µM |
| Cc1nc(NCc2ccc3c(c2)OCO3)c2oc3ccccc3c2n1 | 7.7 µM | 21.8 µM | – |
| CN(CC(=O)Nc1ccc(Cl)c(Cl)c1)Cc1nnc(-c2ccc(F)cc2)o1 | 15.9 µM | 24.1 µM | – |
| Cc1ccc(Nc2c(-c3ccccn3)nc3ccc(C)cn23)cc1 | 1.43 µM | 1.63 µM | 1.54 µM |
| O=C(CSc1ccccn1)Nc1ccc2c(c1)oc1ccccc12 | < 0.195 µM | > 100 µM | – |
| CCn1ccnc1CN(C)Cc1cn(-c2cccc(C)c2)nc1-c1cccc(F)c1 | 2.58 µM | 4.19 µM | > 40 µM |
| C=CCNc1nnc(Sc2ncccc2[N+](=O)[O-])s1 | 3.96 µM | 6.01 µM | – |
| Cc1ccc(NC(=O)CCSc2nnc(Cc3ccccc3)o2)cc1 | 16.5 µM | 29.3 µM | – |
| CC(C)(C)n1c(O)c(C=Nc2ccc3c(c2)CCC3)c(=O)[nH]c1=O | 37.8 µM | > 100 µM | > 40 µM |
| CC1(C)OC(=O)C(=Cc2ccc[nH]2)C(=O)O1 | < 0.195 µM | > 100 µM | – |
| COc1cc(/C=C2\COC/C(=C\c3ccc(O)c(OC)c3)C2=O)ccc1O | 5.7 µM | 10.8 µM | 21.8 µM |
| Clc1ccc2c(c1)C(c1ccccc1Cl)=NCc1nnc(N3CCN(CCOc4ccccc4)CC3)n1-2 | 12.5 µM | 16.7 µM | > 40 µM |
| CCn1cc(C(=O)O)c(=O)c2cc(F)c(N3CCNCC3)cc21 | 2.85 µM | 3.11 µM | – |
| O=C(NC(Nc1nc2ccc([N+](=O)[O-])cc2s1)(C(F)(F)F)C(F)(F)F)c1ccccc1Cl | 2.17 µM | 4.17 µM | 1 µM |
| CCCCCc1cc(=O)oc2c(C(CCN3CCCCC3)c3cc(OC)c(OC)c(OC)c3)c(OC)cc(OC)c12 (stereo not drawn) | 4.18 µM | 5.62 µM | 13.7 µM |

| SMILES | IC50 | IC90 | CC50 |
| --- | --- | --- | --- |
| COc1cc(/C=C/C(=O)c2ccc(F)cc2)cc(OC)c1OC | 4.93 µM | 7.36 µM | 21.1 µM |
| O=c1cc(C(Cl)(Cl)Cl)oc2c1ccc1ccccc12 | 1.1 µM | 1.8 µM | 10.9 µM |
| COc1ccc(C(C[N+](=O)[O-])n2nc(C)cc2C)cc1 (stereo not drawn) | – | – | > 40 µM |
| Cc1coc2c1C(=O)C(=O)c1c-2ccc2c(C)cccc12 | 0.336 µM | 0.366 µM | 27.8 µM |
| Nc1ccc(-n2ccnc2)cc1 | 41 µM | > 100 µM | – |
| Cc1ccc(-c2ccc(/C=C3\SC(N4CCOCC4)=NC3=O)o2)cc1 | 23.5 µM | > 100 µM | > 40 µM |
| CC(C)C(=O)N1CCN(c2ccc(NC(=O)c3ccc4c(c3)OCCO4)cc2Cl)CC1 | – | > 100 µM | 19.8 µM |
| CCCCC(=O)Nc1ccc2c(c1)oc1ccccc12 | – | > 100 µM | – |
| CCCC(=O)OCCNc1cc(Sc2nc3ccccc3[nH]2)c2nonc2c1[N+](=O)[O-] | 68.1 µM | > 100 µM | 23.5 µM |
| Cc1cccc(NC(=O)c2ccc([N+](=O)[O-])o2)c1C | 12.2 µM | 23.9 µM | 11.5 µM |
| O=C(COC(=O)Cc1ccccc1)Nc1ccc(SC(F)F)cc1 | 36.4 µM | > 100 µM | – |
| CCCCCOC(=O)NCCOC(=O)Nc1ccc(C(=O)OCC)cc1 | < 0.195 µM | > 100 µM | > 40 µM |
| CCOC(=O)c1c(-c2ccccc2)csc1NC(=O)c1cc2ccccc2oc1=O | < 0.195 µM | 0.623 µM | > 40 µM |
| COC(=O)COc1ccc2c(=O)c(-c3ccccc3OC)coc2c1 | 3.01 µM | 5.62 µM | – |
| CC/C(=C\C(=O)c1cccnc1)Nc1ccc(C)c(C)c1 | – | – | > 40 µM |
| CC1CCCN(c2ccc([N+](=O)[O-])s2)C1 (stereo not drawn) | 5.81 µM | 6.36 µM | – |
| O=c1[nH]c(CN2CCCCC2)nc2c1C1(CCCCC1)Cc1ccccc1-2 | 4.01 µM | > 100 µM | – |
| Cc1ccc2cc(/C=C/C(=O)c3ccco3)c(Cl)nc2c1 | 19.3 µM | > 100 µM | > 40 µM |
